Reference: PubChem BioAssay AID1648 (Sanford-Burnham Center for Chemical Genomics, 2009)
The source made the active and inactive calls. The rule behind the calls is not given here.

Biological target: Serine/threonine-protein kinase mTOR (Homo sapiens) (UniProt P42345)
Test: binders of mTOR FRB domain, biophysical, NMR (AID 1648)
Settings: NMR binding to FRB domain, chemical shift

Sequence of Serine/threonine-protein kinase mTOR (Homo sapiens) (P42345 2015-2114): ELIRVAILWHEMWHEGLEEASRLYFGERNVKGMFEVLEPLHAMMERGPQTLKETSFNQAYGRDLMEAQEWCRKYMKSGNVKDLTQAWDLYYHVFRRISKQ

| Compound | Kd |
| --- | --- |
| CNC(=S)Nc1ccc(OC)cc1C | > 4 mM (inactive) |
| O=C1C2=C(SCCS2)C(=O)N1CCCO | > 4 mM (inactive) |
| CN1CCC=C(C(=O)O)C1 | > 4 mM (inactive) |
| Cc1cccc(C)c1NC(=O)CN1CCOCC1 | > 4 mM (inactive) |
| OCc1ccc2c(c1)CCO2 | > 4 mM (inactive) |
| O=c1c(-c2ccc(O)cc2)coc2cc(O)ccc12 | > 4 mM (inactive) |
| O=C(Nc1ccccc1Cl)c1cnccn1 | > 4 mM (inactive) |
| CC1(C)Cn2c(nnc2-c2ccccc2)S1 | > 4 mM (inactive) |
| CC1CC2(NC(=O)NC2=O)C(C)CN1C (configuration not stated) | > 4 mM (inactive) |
| CN(C)C(=S)Nc1ccc([N+](=O)[O-])cc1 | > 4 mM (inactive) |
| O=C(c1ccc(F)cc1)C1CCNCC1 | > 4 mM (inactive) |
| Fc1ccc(-c2n[nH]c(=S)n2CC2CCCO2)cc1 (configuration not stated) | > 4 mM (inactive) |
| CC(=O)O[C@@H]1CC2C(C)(C)C(=O)C=C[C@]2(C)C2CC[C@@]3(C)[C@H](c4ccoc4)OC(=O)[C@H]4O[C@]43[C@@]21C (some centres not stated) | > 4 mM (inactive) |
| COC(=O)[C@@H]1OC(=O)[C@H]2O[C@@]23[C@@]1(C)CCC1[C@@]2(C)CCC(=O)C(C)(C)C2C[C@@H](OC(C)=O)[C@]13C (some centres not stated) | > 4 mM (inactive) |
| O=C(c1ccccc1)N1CCN(c2ccccc2F)CC1 | > 4 mM (inactive) |
| CC(=O)c1ccc(-n2ccnc2)cc1 | > 4 mM (inactive) |
| Cc1cc(N)on1 | > 4 mM (inactive) |
| CC(=O)Nc1ccc(Nc2nnc(C)c(=O)[nH]2)cc1 | > 4 mM (inactive) |
| C=C1CCC(C2CC(=O)OC2=O)C(=O)CCC2C1CC2(C)C (configuration not stated) | > 4 mM (inactive) |
| CN=C(C)c1c(O)n(C)c(=S)n(C)c1=O | > 4 mM (inactive) |
| O=C1NC(=Nc2ccccc2)S/C1=C/c1cccnc1 | > 4 mM (inactive) |
| CC(C)(C)CC(=O)N1CCC(C(N)=O)CC1 | > 4 mM (inactive) |
| O=C(O)CCSc1nc2ccccc2s1 | > 4 mM (inactive) |
| COc1ccc(-c2cc(=O)c3ccccc3o2)cc1OC | > 4 mM (inactive) |
| CCOC(=O)c1cnc2cc(C)nn2c1C | > 4 mM (inactive) |

| Compound | Kd |
| --- | --- |
| Cc1cccc(OCc2nnc(N)s2)c1 | > 4 mM (inactive) |
| OCc1nc2ccccc2s1 | > 4 mM (inactive) |
| Cc1cc(C)n2nc(SCC(=O)c3ccccc3)nc2n1 | > 4 mM (inactive) |
| CSc1n[nH]c(NCc2ccccc2)n1 | > 4 mM (inactive) |
| NS(=O)(=O)c1ccc2c3c(cccc13)C(=O)N2 | > 4 mM (inactive) |
| Cn1nc(C(=O)N2CCOCC2)c2ccccc2c1=O | > 4 mM (inactive) |
| Nc1ccc(C(=O)NCC2CCCO2)cc1 (configuration not stated) | > 4 mM (inactive) |
| O=C(Nc1ccccc1C(F)(F)F)N1CCCCCC1 | > 4 mM (inactive) |
| O=C1CS/C(=N/N=C/c2cccs2)N1 | > 4 mM (inactive) |
| CN1CCN(C(=O)c2ccccc2N)CC1 | > 4 mM (inactive) |
| O=C(COc1ccccc1Cl)N1CCCC1 | > 4 mM (inactive) |
| CC1(C)CC(=O)c2sc(N)nc2C1 | > 4 mM (inactive) |
| CC(=O)Nc1cc(C(F)(F)F)ccc1N1CCOCC1 | > 4 mM (inactive) |
| NC(=O)c1ccccc1N1CCCCC1 | > 4 mM (inactive) |
| CC(C(N)=O)N1C(=O)c2ccccc2C1=O (configuration not stated) | > 4 mM (inactive) |
| c1ccc2c(c1)ncn2CCn1cnc2ccccc21 | > 4 mM (inactive) |
| Cc1ccccc1CSc1nnc(C)n1N | > 4 mM (inactive) |
| CC(=O)NC(=S)Nc1nc2ccccc2n1C(C)=O | > 4 mM (inactive) |
| O=c1sc2ccccc2n1CN1CCOCC1 | > 4 mM (inactive) |
| Cc1cc(C)n(-c2ccc(N)cc2)n1 | > 4 mM (inactive) |
| Nc1nc2ncc(=O)[nH]c2c(=O)[nH]1 | > 4 mM (inactive) |
| COc1cc([C@@H]2c3cc4c(cc3[C@H](OC(C)=O)[C@H]3COC(=O)[C@@H]23)OCO4)cc(OC)c1OC | > 4 mM (inactive) |
| Cc1cc(NC(=O)c2cccc(S(C)(=O)=O)c2)no1 | > 4 mM (inactive) |
| CC(=O)O[C@H]1CC[C@@]2(C)C(=CCC3C2CC[C@@]2(C)C3CC[C@@H]2C(C)CCCC(C)C)C1 (some centres not stated) | > 4 mM (inactive) |
| O=C(COc1ccccc1O)NCCO | > 4 mM (inactive) |

| Compound | Kd |
| --- | --- |
| Brc1cccc(-c2nnco2)c1 | > 4 mM (inactive) |
| C[N+](C)(C)CC(=O)[O-] | > 4 mM (inactive) |
| Oc1ccccc1N1CCCC1 | > 4 mM (inactive) |
| NC1=NC(=O)CC(C(=O)Nc2ccccc2)S1 (configuration not stated) | > 4 mM (inactive) |
| Oc1ccc(-c2n[nH]c(=S)n2Cc2ccco2)cc1 | > 4 mM (inactive) |
| CC(C)(C)NC(=O)N1CCC(C(N)=O)CC1 | > 4 mM (inactive) |
| NC(=O)CSc1nc2ccccc2o1 | > 4 mM (inactive) |
| CCC(C)C(=O)O[C@@H]1C[C@@]2(C)[C@H](c3ccoc3)OC(=O)CC23OC2(C)OC34[C@H](OC(=O)C(C)C)[C@@]3(O)[C@@H](OC(=O)C5(C)OC5C)[C@@]5(C)C[C@]3(O)[C@@](C)([C@H]5CC(=O)OC)C14O2 (some centres not stated) | > 4 mM (inactive) |
| CCC(C)C(=O)c1c(O)c(C)c2oc3c(C)c(O)c(C(=O)C(C)CC)c(O)c3c2c1O (configuration not stated) | > 4 mM (inactive) |
| COc1ccc(Cl)cc1-c1n[nH]c(=S)n1C | > 4 mM (inactive) |
| C/C=C/c1ccc2c(c1)OCO2 | > 4 mM (inactive) |
| Cc1nc(SCC#N)c2c(C)c(C)sc2n1 | > 4 mM (inactive) |
| COc1cc(C(C)=O)ccc1OC(=O)N1CCOCC1 | > 4 mM (inactive) |
| NC(=O)CCn1cnc2ccccc21 | > 4 mM (inactive) |
| CCOC(=O)c1c(C)nc2ncccn12 | > 4 mM (inactive) |
| O=C1C2CC=CCC2C(=O)N1c1ccccc1O (configuration not stated) | > 4 mM (inactive) |
| O=C(O)C1CC(=O)N(Cc2cccs2)C1 (configuration not stated) | > 4 mM (inactive) |
| Cc1cc(C)nc(/N=C(\N)N2CCc3ccccc32)n1 | > 4 mM (inactive) |
| O=C(NC1=NCCS1)c1csc2ccccc12 | > 4 mM (inactive) |
| NC(CC(=O)O)c1ccccc1 (configuration not stated) | > 4 mM (inactive) |
| c1ccc2c(c1)nnn2C1CCNCC1 | > 4 mM (inactive) |
| CN(C)S(=O)(=O)N1CCc2ccccc21 | > 4 mM (inactive) |
| COc1ccc2c(c1)OC1(O)COc3cc(OC)c(OC)cc3C1=C2 (configuration not stated) | > 4 mM (inactive) |
| Cc1cc(=O)c2ccccc2n1CC(N)=O | > 4 mM (inactive) |
| COc1ccc(C2(CN)CCOCC2)cc1OC | > 4 mM (inactive) |

| Compound | Kd |
| --- | --- |
| O=C1C2CC=C(Cl)CC2C(=O)N1c1ccccc1O (configuration not stated) | > 4 mM (inactive) |
| OC[C@H]1O[C@@H](Oc2ccc(O)cc2)[C@H](O)[C@@H](O)[C@@H]1O | > 4 mM (inactive) |
| Cc1ccc2nc(SCCC#N)nc(C)c2c1 | > 4 mM (inactive) |
| Cc1cc(=O)n(CCc2ccccc2)c(O)c1C#N | > 4 mM (inactive) |
| O=C1C2C3C=CC(C3)C2C(=O)N1CCCO (configuration not stated) | > 4 mM (inactive) |
| Cc1ccc2c(c1)CCCN2C(=O)c1ccncc1 | > 4 mM (inactive) |
| CC(=O)NCC1(c2ccccc2)CCOCC1 | > 4 mM (inactive) |
| Cc1nn(-c2ccccc2)nc1C(=O)O | > 4 mM (inactive) |
| OC1CSc2ncnn2C1 (configuration not stated) | > 4 mM (inactive) |
| CC1CCCN(C/C(O)=C(\C#N)c2nc3ccccc3[nH]2)C1 (configuration not stated) | > 4 mM (inactive) |
| Nc1ccc(NS(=O)(=O)c2ccc(N)cc2)cc1 | > 4 mM (inactive) |
| CCCCCCCCCCCC[C@H](C(=O)O)[C@@H](C)C(=O)O | > 4 mM (inactive) |
| Cc1ccc(S(=O)(=O)CCc2ccccn2)cc1 | > 4 mM (inactive) |
| Cc1cc(C(=O)Nc2sc(C)c(C)c2C#N)no1 | > 4 mM (inactive) |
| NC(=O)CSc1ncnc2ccccc12 | > 4 mM (inactive) |
| Nc1nnc(C(F)(F)F)s1 | > 4 mM (inactive) |
| NC1C2CC3CC1CC(O)(C3)C2 (configuration not stated) | > 4 mM (inactive) |
| COc1c(C)c2c(c(O)c1C/C=C(\C)CCC(=O)O)C(=O)OC2 | > 4 mM (inactive) |
| CC(=O)NC1C(=O)Nc2c(C)cc(C)cc21 (configuration not stated) | > 4 mM (inactive) |
| NC1=C(c2ccccc2)C(=O)c2ccccc21 | > 4 mM (inactive) |
| Nc1ccc2c(c1)N1CCN=C1S2 | > 4 mM (inactive) |
| CCOC(=O)c1c[nH]c2c(F)cccc2c1=O | > 4 mM (inactive) |
| Nc1ccc2[nH]ncc2c1 | > 4 mM (inactive) |
| Cn1nnc2cc(C(=O)NC3CCCCC3)ccc21 | > 4 mM (inactive) |
| O=C(Nc1ccccc1C(F)(F)F)c1cnccn1 | > 4 mM (inactive) |

| Compound | Kd |
| --- | --- |
| CC(C)NC(=S)N1CCN(S(C)(=O)=O)CC1 | > 4 mM (inactive) |
| CSc1nnc2c(n1)OC(C)=Nc1ccccc1-2 | > 4 mM (inactive) |
| O=C(c1cccs1)N1CCCc2ccccc21 | > 4 mM (inactive) |
| O=C(Nc1cnccn1)c1cccnc1 | > 4 mM (inactive) |
| Nc1cccc(-n2cccc2)c1 | > 4 mM (inactive) |
| Cn1cnnc1Sc1ncnc(N)c1[N+](=O)[O-] | > 4 mM (inactive) |
| COC1=CC23CCCN2CCc2cc4c(cc2C3C1O)OCO4 (configuration not stated) | > 4 mM (inactive) |
| CCOC(=O)CC1Sc2ccccc2NC1=O (configuration not stated) | > 4 mM (inactive) |
| O=C(NCCO)NC(=S)c1ccccc1 | > 4 mM (inactive) |
| Fc1cccc(Cl)c1CN1CCCNCC1 | > 4 mM (inactive) |
| Cn1nnc2cc(CO)ccc21 | > 4 mM (inactive) |
| O=[N+]([O-])c1cccc2c1nnn2C(CO)OCCO (configuration not stated) | > 4 mM (inactive) |
| CC(=O)Oc1cc2c(C(C)=O)coc2c2ccccc12 | > 4 mM (inactive) |
| OC[C@@H]1CCCN2CCCC[C@H]12 | > 4 mM (inactive) |
| O=C(NCc1ccccc1)c1cnsn1 | > 4 mM (inactive) |
| C/C(=C\CO)CC[C@H](C)CCC[C@H](C)CCCC(C)C | > 4 mM (inactive) |
| O=C1CSC2(CN3CCC2CC3)N1 (configuration not stated) | > 4 mM (inactive) |
| NC(=O)C1CC2C=CC1C2 (configuration not stated) | > 4 mM (inactive) |
| CC(=O)NN1C(=O)c2cccc3cccc(c23)C1=O | > 4 mM (inactive) |
| O=C(O)[C@H](O)[C@@](O)(Cc1ccc(O)cc1)C(=O)O | > 4 mM (inactive) |
| Cc1ccc(N2CCN(C(=O)c3ccccc3)CC2)c(C)c1 | > 4 mM (inactive) |
| CNC(=O)C1CCCN(S(C)(=O)=O)C1 (configuration not stated) | > 4 mM (inactive) |
